Data on one compound can be found in patent US20240245677A1, “SELECTED COMPOUNDS FOR TARGETED DEGRADATION OF BRD9” (C4 THERAPEUTICS, INC., priority 2021, published 2024).

Each structure is given as a SMILES string. Where two headings read alike, the source gives them in different places.

The target of one assay is T1, BRD9 (Homo sapiens, UniProt Q9H8M2).
T1 sequence (Q9H8M2 1-597): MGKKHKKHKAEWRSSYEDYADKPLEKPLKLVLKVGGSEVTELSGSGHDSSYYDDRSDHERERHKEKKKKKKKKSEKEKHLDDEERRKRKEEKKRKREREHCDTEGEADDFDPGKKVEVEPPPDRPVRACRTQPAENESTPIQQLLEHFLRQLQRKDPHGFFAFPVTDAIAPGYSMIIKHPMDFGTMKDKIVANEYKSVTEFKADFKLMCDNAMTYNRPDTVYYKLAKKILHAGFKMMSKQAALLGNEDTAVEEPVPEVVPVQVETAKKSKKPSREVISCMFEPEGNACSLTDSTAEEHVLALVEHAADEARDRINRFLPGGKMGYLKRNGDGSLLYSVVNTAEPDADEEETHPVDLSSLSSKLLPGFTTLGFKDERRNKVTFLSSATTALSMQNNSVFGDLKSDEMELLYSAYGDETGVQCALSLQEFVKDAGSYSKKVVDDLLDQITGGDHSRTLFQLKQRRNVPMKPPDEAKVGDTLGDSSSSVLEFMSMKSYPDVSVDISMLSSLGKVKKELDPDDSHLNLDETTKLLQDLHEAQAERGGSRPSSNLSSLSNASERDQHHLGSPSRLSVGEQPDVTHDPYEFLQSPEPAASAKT
Kind of assay: BRD9 degradation in Yamato-SS cells (endogenous), Western blot. The format is cell-based. The settings on record: percent BRD9 detected, read-out: Emax(%). The procedure:
The purpose of this study was to evaluate the detection of BRD9 in a human cell line and susceptibility to degradation by Compound 1.
Previously frozen YAMATO-SS human cells (provided by the RIKEN BRC through the National BioResource Project of the MEXT/AMED, Japan (cat #RCB3577)) were thawed. Upon thawing, the cells were transferred to a 15 mL conical tube containing 10 mL of warm RPMI-1640 medium (Catalog No. C2400500BT, Gibco, Grand Island, NY, USA) supplemented with 10% FBS (Catalog No. SV30087.03, Cytiva, Marlborough, MA, USA) and spun down for 5 minutes at 1200 rpm. An aliquot was diluted 2× with Trypan Blue solution 0.4% (Catalog No. 15250061, ThermoSischer Scientific, Waltham, MA, USA) and cell count was determined. […]
Samples were boiled for 5 minutes and placed on ice for 30 minutes. […] Supernatants were transferred to a new 2.0 mL microcentrifuge tube and total protein concentrations were measured using Pierce™ BCA Protein Assay Kit (Catalog No. 23225, ThermoFischer Scientific, Waltham, MA USA).
After total protein quantification, all samples were diluted to a fixed μg/μL of protein in 6× loading buffer (Catalog No. BP-111R, Boston Bioproducts, Inc., Milford, MA, USA) for a final concentration of 40 μg of total protein in 1× loading buffer per lane. […]
(In general: In western blotting, separated proteins are transferred to a membrane and probed.)

Assay [1] concerns HSSYII synovial sarcoma cell line. Kind of assay: Global proteomics in HSSYII cells. The format is cell-based, human. The settings on record: 100 nM, 4 hours. The procedure: Global protein expression was performed in Yamato-SS and HSSYII synovial sarcoma cell lines after 4-hour treatment with Compound 1 (100 nM). The Yamato-SS cell line was provided by the RIKEN BRC through the National BioResource Project of the MEXT/AMED, Japan (cat #RCB3577), and the HS-SY-II cell line was provided by the RIKEN BRC through the National BioResource Project of the MEXT/AMED, Japan (cat #RCB2231).
Both Yamato-SS and HSSYII cell lines were treated with Compound 1 at 100 nM for 4 hours and analyzed by multiplexed quantitative proteomics. The x-axis illustrates the totality of the proteomics data and is labeled as fold change (FC) of Compound 1 vs vehicle in a Log 2 transformation scale. The statistical significance (T-test of treated vs. DMSO with Benjamini-Hochberg correction applied) of the observed changes is shown in the y-axis as negative Log 10 of the P-value. The horizontal dashed line marks the statistical significance (P-value ≤0.001) and the vertical line marks fold change ≥2.

For `COc1cc(-c2cn(C)c(=O)c(C)c2C)cc(OC)c1CN1CC[C@H](N2CCN(c3ccc(N[C@H]4CCC(=O)NC4=O)cc3F)CC2)C(F)(F)C1` [Compound 1, (S)-3-((4-(4-((S)-1-(2,6-dimethoxy-4-(1,4,5-trimethyl-6-oxo-1,6-dihydropyridin-3-yl)benzyl)-3,3-difluoropiperidin-4-yl)piperazin-1-yl)-3-fluorophenyl)amino)-piperidine-2,6-dione], the figures for the % BRD9 remaining on BRD9 (4 hr) and at BRD9 (24 hr) were 1.2% and 3.4%, respectively. In addition, the “BRD9 protein level decrease vs DMSO control” value in assay [1] is given as 66.7%. The maximal response (Emax) at 0.1 µM in assay [1] (Homo sapiens, read-out: BRD9 Emax) stood at 33.3%.

The Emax is the size of the effect at its maximum, as opposed to the concentration needed.
